The source of these data is US9579364B2, “Methods for treating benign prostatic hypertrophy (BPH)” (New York University, priority 2002, dated 2017).

The subject of data set [1] is prostate of estradiol-treated male Wistar rats. In words: Estradiol-treated male Wistar rat model of BPH. It is filed as in vivo. The following applies: for mean gland size: difference not significant. From the text: To evaluate further the efficacy of somatostatin 14 (SS-14) in the treatment of BPH and related urinary tract obstruction, the present inventors used an animal model system in which prostate hyperplasia, together with prostatitis is induced by administration of estradiol to male Wistar rats. The estradiol-treated Wistar rat animal model system was originally described by Robinette (1988, The Prostate 12:271-286; the content of which is incorporated herein in its entirety) as offering an animal model of the inflammation and fibromuscular growth observed in human BPH. Robinette also described the estradiol-treated Wistar rat animal model system as useful for identifying factors and/or xenobiotics that can inhibit or potentially reverse progression of prostatic fibromuscular proliferation. Wilson et al. (Exp Mol Pathol. 2004; 77:7-17; the content of which is incorporated herein in its entirety) also presented guidance pertaining to the estradiol-treated Wistar rat animal model system of Robinette, offering that chronic inflammation induced in the lateral prostate by estrogen treatment is accompanied later by fibromuscular proliferation, which correlates with the prevalence of chronic inflammation in BPH in men. To assay the therapeutic benefit of IGF-I inhibitors in an animal model system, the present inventors utilized the animal model system of Robinette (supra), as modified in accordance with standard methodology as set forth herein.
Three month old Wistar rats were treated for 2 weeks with 1-cm long 0.078 i.d.×0.125 o.d. Silastic tubings filled with estradiol (E2). Another group of estradiol treated animals was also given SS-14 via Alzet pump implanted into the subcutaneous fat of the back, at a dosage of 15 μg/kg/hour. At the end of the treatment period animals were sacrificed and prostates removed en bloc. A total of four animals were analyzed per group.
Prior to fixing and embedding, prostates were weighed. Bladder and coagulating glands were removed and the remaining tissues were embedded with urethral opening down. Blocks were then sectioned at 150 μm intervals.
The effect on total area of prostate occupied by glands was also assessed. To determine whether SS-14 would have an inhibitory effect on the glandular component of the prostate, the area of the organ occupied by glands in transverse sections, including the urethra and cut at the level at which the width of the prostate was maximal, was measured. Gland area is expressed as it relates to the total area of the organ in transverse sections.
The effect of SS-14 on the Fibromuscular Compartment surrounding the Urethra was also evaluated. To determine whether SS-14 reduced the fibromuscular component of the urethra, tissue sections were immunostained for smooth muscle α actin (αSMA). Each prostate was cut at 5 different levels, with 150 microns between each set of sections. The results of αSMA staining are shown in the photomicrographs depicted in FIG. 8; the whole urethra is indicated by circles and the surrounding fibromuscular layer by arrows.

Data set [2] deals with mammary gland. The following applies: cited from earlier work.
The test system of data set [3] is prostate of intact 28 day old male mice. In words: PQ401 or SS14 treatment of intact 28 day old male mice: prostate. It is filed as in vivo. As to the method:
To examine further the effect of various compounds on glandular and fibromuscular development of the prostate, somatostatin-14 (SS14, a native somatostatin) and an exemplary small molecule IGF-I receptor inhibitor PQ401 were assessed in a variety of animal models.
(§1) In a first experimental approach, the effect of treatment of intact 28 day old male mice with vehicle or PQ401 (a small molecule IGF-I receptor specific inhibitor) or somatostatin-14 (SS14; a native somatostatin) was evaluated. PQ401 and SS14 inhibit IGF-I action. For these experiments, N=5 mice per group. The results of these experiments are presented below in Tables 7-10: […]

Data set [4] in a line: PQ401 or SS14 treatment of intact 28 day old male mice: body weight. It is filed as in vivo. On the procedure:
as §1

Data set [5] concerns patients suffering from acromegaly. The following applies: acromegalic patients, 1 year, cited from earlier work.
In data set [6] the test system is prostate of intact wild-type male mice. In words: IGFBP-1 effect on prostate development in 4-wk-old intact wild-type male mice. It is filed as in vivo. As to the method:
FIG. 7 depicts the effect of IGFBP-1 treatment on prostate structures in intact 28 day old male mice. After 7 d of treatment with IGFBP-1 or vehicle, prostate development in both fibromuscular and glandular compartments was analyzed. Effects on fibromuscular development (A), epithelial development (B), lumen size (C), total prostate area (D), and prostate weight (E) are shown. Effects of IGFBP-1 (compared with control) on cell division and programmed cell death are shown in representative photomicrographs (F) showing the effect of IGFBP-1 (lower row) on cell division (left) and apoptosis (right) compared with control animals (top row) Arrows point to Ki67 or TUNEL staining in stroma, and arrows point to those effects in glands. Magnification, 400×. Effects of Ki67 staining (G) for cell division (left) and effects on programmed cell death by TUNEL (right). WT, Wild type.
Eugonadal intact mice. The effect of treatment with IGH3P-1 on prostate development in 4-wk-old intact wild-type male mice was also studied. When compared with saline-treated control animals, IGFBP-1 inhibited all fibromuscular development, epithelial development, lumen size, prostate area, and prostate weight (FIG. 7, A-E). IGFBP-1 inhibited cell division in the epithelial compartment, and increased apoptosis in both fibromuscular and epithelial compartments (FIGS. 7, F and G).

[7] abbreviates: 4-wk-old intact wild-type male mice (FIG. 7, F and G).

Where “and” joins values, the source holds several entries; their conditions need not be identical. Identical values can stand only once. Numbered stars: 1 amine (or outer) side, 2 acyl side, 3 side chain; on linkers, the order of the positions; unused ones are H or OH. Square brackets hold non-standard residues; d marks the D form. Side chains are listed from the residue outwards. Peptide text beside a SMILES is read from it. * marks the point of attachment. Ethylenediamine = C(CN[*:2])N[*:1]; Hyp = O=C(O)[C@@H]1C[C@@H](O)CN1; Phg = N[C@H](C(=O)O)c1ccccc1; CO = O=C([*:1])[*:2]; Bn = c1ccc(C*)cc1

In the case of `C[C@]12CC[C@@H]3c4ccc(O)cc4CC[C@H]3[C@@H]1CC[C@@H]2O` [E2, estradiol], the “Weight of prostates, individual animals” value in data set [1] (3 month old Wistar rats, E2 2 weeks, SS-14 15 μg/kg/hour by Alzet pump, Animal #1-#4) was 0.570 grams and 0.580 grams and 0.532 grams and 0.630 grams. Besides, the “MEAN WEIGHT of prostates” value in data set [1] (3 month old Wistar rats, E2 2 weeks, SS-14 15 μg/kg/hour, second set of experiments, p=0.019) was determined as 0.578 grams. Further, in data set [1] (E2-treated Wistar rats), the “Ratio between the prostate area occupied by glandular elements and the whole organ area in transverse sections, individual animals” value is 0.8467 and 0.857 and 0.8758 and 0.8596; the mean gland size turned out to be 0.099 mm^2. In addition, in data set [1] (E2-treated Wistar rats, αSMA immunostaining), the “Fibromuscular Layer Area of the urethra, MEAN AREA” value stood at 2.938 mm2. In data set [1] (E2-treated Wistar rats, αSMA immunostaining, Animal #1-#4), the “Fibromuscular Layer Area of the urethra, individual animals” value is 3.412 mm2 and 1.822 mm2 and 2.369 mm2 and 4.149 mm2. In addition, in data set [1] (E2-treated Wistar rats, p=0.028), the “Ratio between the prostate area occupied by glandular elements and the whole organ area in transverse sections, AVERAGE” value turned out to be 0.860.

As for `NCCCC[C@@H]1NC(=O)[C@@H](Cc2c[nH]c3ccccc23)NC(=O)[C@H](c2ccccc2)NC(=O)[C@@H]2C[C@@H](OC(=O)NCCN)CN2C(=O)[C@H](Cc2ccccc2)NC(=O)[C@H](Cc2ccc(OCc3ccccc3)cc2)NC1=O` [SOM230, pasireotide] (cyclo(F[Hyp]([CO-Ethylenediamine])[Phg][dW]KY(Bn))), the “mammary development in rats” value in data set [2] is reported as “prevent mammary development”. The “IRS-1 phosphorylation in the mammary gland” value in data set [2] (rats) was “reduction”.

As for `C[C@H](N)C(=O)NCC(=O)N[C@H]1CSSC[C@@H](C(=O)O)NC(=O)[C@H](CO)NC(=O)[C@H]([C@@H](C)O)NC(=O)[C@H](Cc2ccccc2)NC(=O)[C@H]([C@@H](C)O)NC(=O)[C@H](CCCCN)NC(=O)[C@H](Cc2c[nH]c3ccccc23)NC(=O)[C@H](Cc2ccccc2)NC(=O)[C@H](Cc2ccccc2)NC(=O)[C@H](CC(N)=O)NC(=O)[C@H](CCCCN)NC1=O` [SS14, Somatostatin-14], the “area of the Longitudinal muscle” value in data set [3] (28 day old male mice, controls 0.939) came to 0.486 mm^2. In data set [3] (28 day old male mice, controls 1.322), the “total area of the Circular muscle” value is 0.438 mm^2. Moreover, in data set [3] (intact 28 day old male mice, vs 28 day control), the “% Reduction of prostate weight” value came to 37%. The same molecule registered a Body weight in data set [4] (controls 26.9 ± 0.3) of 23.9 ± 0.3 gm. Also, in data set [4] (vs controls), the “% Reduction of body weight” value came out at 11%. The molecule also gave a mean gland size in data set [1] (E2-treated Wistar rats) of 0.078 mm^2. For the same molecule, in data set [1] (vs control E2-treated rats (vehicle only), p=0.024), the “prostate weight of E2-treated rats, first set of experiments” value is reported as “significant reduction”.

Take octreotide: in data set [5] (in most of the patients treated), the “circulating GH and IGF-I levels” value was “normalization”. Besides, the prostate volume result in data set [5] is on record as “reduction”.

B1: IGFBP-1: insulin-like growth factor binding protein, inhibitor of IGF-I action (protein, UniProt P08833 26-259, looked up)
Insulin-like growth …: APWQCAPCSAEKLALCPPVSASCSEVTRSAGCGCCPMCALPLGAACGVATARCARGLSCRALPGEQQPLHALTRGQGACVQESDASAPHAAEAGSPESPESTEITEEELLDNFHLMAPSEEDHSILWDAISTYDGSKALHVTNIKKWKEPCRIELYRVVESLAKAQETSGEEISKFYLPNCNKNGFYHSRQCETSMDGEAGLCWCVYPWNGKRIPGSPEIRGDPNCQIYFNVQN
On to B1, for which, in data set [6] (setting [7]), the “apoptosis in both fibromuscular and epithelial compartments (TUNEL)” value was “increased”; the “cell division in the epithelial compartment (Ki67)” value is listed as “inhibited”. The “fibromuscular development, epithelial development, lumen size, prostate area, and prostate weight” value in data set [6] (4-wk-old intact wild-type male mice, 7 d, vs saline-treated control (FIG. 7, A-E)) is given as “inhibited”.
